Earlier results as cited in US9540416B2, “Purification process” (GLAXOSMITHKLINE BIOLOGICALS S.A., priority 2012, dated 2017).
Entries after “also recorded” stand apart in the source; their conditions may differ.

How the values were obtained:
[1] = relative to other Quillaja saponins
mice and other mammals = details: in mice and other mammals

Substance	toxicity [1]	adjuvant activity (mice and other mammals)
QS-18	more toxic at lower doses than other Quillaja saponins	significant adjuvant activity
QS-21	low toxicity	significant adjuvant activity; also recorded: strong adjuvant activity
QS-17	–	significant adjuvant activity
